Counter-ions that a name gives are not always drawn. Like-named read-outs stand apart in the source and are kept apart here.

This experiment has as its system angiotensin II (aortic blood vessel of rabbits). The experiment can be described thus: Antagonistic effect on angiotensin II (A II)-induced tension, aortic blood vessel of rabbits. The format is cell-based. As to conditions: Oryctolagus cuniculus, 0.25 h; for inhibition at 0.1 µM: 10^-7 M drug substance.
The mark [1] stands for this setting: 10^-5 M drug substance, A II 4×10^-9 M, 15 minutes, read-out: Inhibition.
Where [2] appears, read: 10^-6 M drug substance, A II 4×10^-9 M, 15 minutes, read-out: Inhibition.

Excerpt: Antagonistic effect of the compound (I) of the present invention on angiotensin II (hereinafter referred to briefly as "A II") (with aortic blood vessel of rabbits)
The blood-vessel preparation and reaction were done in accordance with the method as described in "European Journal of Pharmacology", 18, 316 (1972). […] [formula] where; T1 =Change in isometric tension of the blood vessel brought about by A II without a test drug substance (g)

For the compound `Cc1ccccc1Cn1c(-c2ccccc2)nc(Cl)c1CC(=O)O`, under setting [1], the inhibition at 10 µM is 58%.

Consider `O=C(O)Cc1c(Cl)nc(-c2ccccc2)n1Cc1c(Cl)cccc1Cl`, for which the inhibition at 1 µM under setting [2] worked out at 34%.

Turning to `O=C(O)Cc1c(Cl)nc(-c2ccccc2)n1Cc1c(F)cccc1Cl`, the inhibition at 1 µM under setting [2] came to 64%.

With `O=C(O)Cc1c(Cl)nc(-c2ccccc2)n1Cc1ccccc1Br`, the inhibition at 1 µM under setting [2] is 60%.

Take `CCCCNc1ccc(-c2nc(Cl)c(CC(=O)O)n2Cc2ccccc2)cc1`: the inhibition at 10 µM under setting [1] stood at 63%.

Take `O=C(O)Cc1c(Cl)nc(-c2ccccc2[N+](=O)[O-])n1Cc1ccccc1`: the inhibition at 10 µM under setting [1] was 35%.

`Nc1ccccc1-c1nc(Cl)c(CC(=O)O)n1Cc1ccccc1`: the inhibition at 10 µM under setting [1] turned out to be 30%.

Regarding `O=C(O)Cc1c(Cl)nc(-c2cccc(O)c2)n1Cc1ccccc1`, the inhibition at 10 µM under setting [1] was found to be 18%.

Take `O=C(O)Cc1c(Cl)nc(-c2ccc3c(c2)OCO3)n1Cc1ccccc1`: the inhibition at 10 µM under setting [1] was 51%.

On to `CN(C)c1ccc(-c2nc(Cl)c(CC(=O)O)n2Cc2ccccc2)cc1[N+](=O)[O-]`, for which the inhibition at 10 µM under setting [1] came to 73%.

In turn, `CN(C)c1c([N+](=O)[O-])cc(-c2nc(Cl)c(CC(=O)O)n2Cc2ccccc2)cc1[N+](=O)[O-]` returned an inhibition at 10 µM of 86%.

Consider `CCN(CC)c1ccc(-c2nc(Cl)c(CC(=O)O)n2Cc2ccccc2)cc1Cl`, for which the inhibition at 1 µM under setting [2] was found to be 25%.

Consider `O=C(O)Cc1c(Cl)nc(-c2ccccc2O)n1Cc1ccccc1`, for which the inhibition at 10 µM under setting [1] was found to be 55%.

`CN(C)c1ccc(-c2nc(Cl)c(CC(=O)O)n2Cc2ccccc2)cc1Cl`: the inhibition at 1 µM under setting [2] amounted to 33%.

In the case of `CN(C)c1ccc(-c2nc(Cl)c(CC(=O)O)n2Cc2ccccc2)cc1Br`, the inhibition at 1 µM under setting [2] was 18%.

In the case of `O=C(O)Cc1c(Cl)nc(-c2ccc(O)c(O)c2)n1Cc1ccccc1`, the inhibition at 1 µM under setting [2] amounted to 34%.

As for `COc1cccc(-c2nc(Cl)c(CC(=O)O)n2Cc2ccccc2Cl)c1`, the inhibition at 1 µM under setting [2] came out at 23%.

Turning to `COc1cc(-c2nc(Cl)c(CC(=O)O)n2Cc2ccccc2)ccc1O`, the inhibition at 1 µM under setting [2] amounted to 16%.

`COc1ccccc1Cn1c(-c2ccccc2)nc(Cl)c1CC(=O)O`: the inhibition at 1 µM under setting [2] came out at 42%.

For the compound `COc1ccc(Cn2c(-c3ccccc3)nc(Cl)c2CC(=O)O)cc1`, the inhibition at 10 µM under setting [1] is 61%.

`CCOc1ccc(Cn2c(-c3ccccc3)nc(Cl)c2CC(=O)O)cc1`: the inhibition at 1 µM under setting [2] worked out at 43%.

With `CCOc1ccccc1Cn1c(-c2ccccc2)nc(Cl)c1CC(=O)O`, the inhibition at 1 µM under setting [2] was 41%.

As to `COc1ccc(Cn2c(-c3ccccc3)nc(Cl)c2CC(=O)O)cc1OC`, the inhibition at 1 µM under setting [2] worked out at 38%.

On to `CCOc1ccc(Cn2c(-c3ccccc3)nc(Cl)c2CC(=O)O)cc1C`, for which, under setting [2], the inhibition at 1 µM turned out to be 81%.

With `COc1ccc(-c2nc(Cl)c(CC(=O)O)n2Cc2ccccc2)cc1OC`, the inhibition at 1 µM under setting [2] stood at 18%.

With `COc1ccc(-c2nc(Cl)c(CC(=O)O)n2Cc2ccccc2)cc1C`, the inhibition at 1 µM under setting [2] is 32%.

Consider `COc1ccc(Cn2c(-c3ccc(OC)c(C)c3)nc(Cl)c2CC(=O)O)cc1C`, for which, under setting [2], the inhibition at 1 µM was found to be 54%.

As for `COc1cc(-c2nc(Cl)c(CC(=O)O)n2Cc2ccccc2)ccc1OCc1ccccc1`, the inhibition at 1 µM under setting [2] came to 18%.

As to `O=C(O)Cc1c(Cl)nc(C2CCCC2)n1Cc1ccccc1`, the inhibition at 1 µM under setting [2] is 34%.

For the compound `O=C(O)Cc1c(Cl)nc(C2CCCCC2)n1Cc1ccccc1`, under setting [2], the inhibition at 1 µM stood at 18%.

On to `O=C(O)Cc1c(Cl)nc(-c2ccccc2)n1Cc1ccc(Cl)cc1Cl` [1-(2,4-dichlorobenzyl)-4-chloro-2-phenylimidazole-5-acetic acid hydrochloride], for which, under setting [1], the inhibition at 10 µM is 30%.

In the case of `O=C(O)Cc1c(Cl)nc(-c2ccccc2)n1Cc1cc([N+](=O)[O-])ccc1Cl` [1-(2-chloro-5-nitrobenzyl)-4-chloro-2-phenylimidazole-5-acetic acid], the inhibition at 1 µM under setting [2] is 34%.

Turning to `O=C(O)Cc1c(Cl)nc(-c2ccccc2)n1Cc1ccc(OCc2ccccc2)cc1` [1-(4-benzyloxybenzyl)-4-chloro-2-phenylimidazole-5-acetic acid], under setting [1], the inhibition at 10 µM was 19%.

Take `O=C(O)Cc1c(Cl)nc(-c2ccccc2)n1Cc1ccc(Cl)cc1` [1-(4-chlorobenzyl)-4-chloro-2-phenylimidazole-5-acetic acid]: the inhibition at 10 µM under setting [1] stood at 25%.

For `O=C(O)Cc1c(Cl)nc(-c2ccccc2)n1Cc1ccccc1F` [4-chloro-1-(2-fluorobenzyl)-2-phenylimidazole-5-acetic acid], the inhibition at 1 µM under setting [2] is 23%.

In the case of `COc1cccc(Cn2c(-c3ccccc3)nc(Cl)c2CC(=O)O)c1` [4-chloro-1-(3-methoxybenzyl)-2-phenylimidazole-5-acetic acid], under setting [1], the inhibition at 10 µM was determined as 73%.

For `Cc1ccc(Cn2c(-c3ccccc3)nc(Cl)c2CC(=O)O)cc1` [4-chloro-1-(4-methylbenzyl)-2-phenylimidazole-5-acetic acid], under setting [1], the inhibition at 10 µM was determined as 80%.

With `CCc1nc(Cl)c(CC(=O)O)n1Cc1ccccc1` [C2 H5 / H / H / H], the inhibition at 1 µM under setting [2] was 36%.

On to `Cc1nc(Cl)c(CC(=O)O)n1Cc1ccccc1` [CH3 / H / H / H], for which, under setting [1], the inhibition at 10 µM was determined as 38%.

In the case of `O=C(O)Cc1c(Cl)nc(-c2ccccc2)n1Cc1ccccc1Cl` [drawing 92], under setting [1], the inhibition at 10 µM worked out at 90%.

As to `Nc1ccc(-c2nc(Cl)c(CC(=O)O)n2Cc2ccccc2)cc1` [drawing 101], the inhibition at 10 µM under setting [1] stood at 50%.

Take `O=C(O)Cc1c(Cl)nc(-c2ccc(O)cc2)n1Cc1ccccc1` [drawing 103]: under setting [1], the inhibition at 10 µM was found to be 32%.

`O=C(O)Cc1c(Cl)nc(-c2cc([N+](=O)[O-])c(Cl)c([N+](=O)[O-])c2)n1Cc1ccccc1` [drawing 108] yielded an inhibition at 1 µM of 82%.

As to `CCCCOc1ccc(Cn2c(-c3ccccc3)nc(Cl)c2CC(=O)O)cc1` [drawing 121], under setting [2], the inhibition at 1 µM was found to be 56%.

Consider `COc1ccc(Cn2c(-c3ccccc3)nc(Cl)c2CC(=O)O)cc1C` [drawing 124, 4-chloro-1-(3-methyl-4-methoxybenzyl)-2-phenylimidazole-5-acetic acid], for which the inhibition at 1 µM under setting [2] was determined as 80%.

For the compound `CC(C)c1nc(Cl)c(CC(=O)O)n1Cc1ccccc1` [i-C3 H7 / H / H / H], the inhibition at 1 µM under setting [2] was determined as 41%.

Regarding `CCCc1nc(Cl)c(CC(=O)O)n1Cc1ccccc1` [n-C3 H7 / H / H / H], the inhibition at 1 µM under setting [2] is 22%.

For `CCCCc1nc(Cl)c(CC(=O)O)n1Cc1ccccc1OCC` [n-C4 H9 / 2-C2 H5 O / H / H, 2-Butyl-4-chloro-1-(2-ethoxybenzyl)imidazole-5-acetic acid], under setting [2], the inhibition at 1 µM was 53%.

As for `CCCCc1nc(Cl)c(CC(=O)O)n1Cc1ccccc1[N+](=O)[O-]` [n-C4 H9 / 2-NO2 / H / H], at 0.01 µM the inhibition (10^-8 M drug substance, A II 4×10^-9 M, 15 minutes) was 30%.

As for `CCCCc1nc(Cl)c(CC(=O)O)n1Cc1ccc(OC)c(C)c1` [n-C4 H9 / 3-CH3 / 4-CH3 O / H], the inhibition at 1 µM under setting [2] came out at 99%.

For the compound `CCCCOc1ccc(Cn2c(CCCC)nc(Cl)c2CC(=O)O)cc1` [n-C4 H9 / 4-n-C4 H9 O / H / H], under setting [2], the inhibition at 1 µM turned out to be 85%.

With `CCCCCc1nc(Cl)c(CC(=O)O)n1Cc1ccccc1Cl` [n-C5 H11 / 2-Cl / H / H], for the setting “A II 4×10^-9 M, 15 minutes”, 0.1 µM produced 57% inhibition.

Compound `CCCCCCc1nc(Cl)c(CC(=O)O)n1Cc1ccccc1Cl` [n-C6 H13 / 2-Cl / H / H] came in with an inhibition at 0.1 µM (A II 4×10^-9 M, 15 minutes) of 84%.

With `CCCCCCc1nc(Cl)c(CC(=O)O)n1Cc1ccc(OC)c(C)c1` [n-C6 H13 / 3-CH3 / 4-CH3 O / H], under setting [2], the inhibition at 1 µM was 100%.

The values above are taken from US4355040A, “Hypotensive imidazole-5-acetic acid derivatives” (Takeda Chemical Industries, Ltd., priority 1979, dated 1982).
